From US20100048575A1, “NOVEL TETRACYCLIC INHIBITORS OF CYSTEINE PROTEASES, THE PHARMACEUTICAL COMPOSITIONS THEREOF AND THEIR THERAPEUTIC APPLICATIONS” (priority 2006, published 2010) come the findings set out here.

For the assay, the target named is T1, USP7 (Homo sapiens, UniProt Q93009).
T1 construct: His tag (from vector pFastBac-HT) (N); made in house; host or cells: insect cells (Sf9 or High Five), baculovirus
T1 sequence (Q93009 whole entry): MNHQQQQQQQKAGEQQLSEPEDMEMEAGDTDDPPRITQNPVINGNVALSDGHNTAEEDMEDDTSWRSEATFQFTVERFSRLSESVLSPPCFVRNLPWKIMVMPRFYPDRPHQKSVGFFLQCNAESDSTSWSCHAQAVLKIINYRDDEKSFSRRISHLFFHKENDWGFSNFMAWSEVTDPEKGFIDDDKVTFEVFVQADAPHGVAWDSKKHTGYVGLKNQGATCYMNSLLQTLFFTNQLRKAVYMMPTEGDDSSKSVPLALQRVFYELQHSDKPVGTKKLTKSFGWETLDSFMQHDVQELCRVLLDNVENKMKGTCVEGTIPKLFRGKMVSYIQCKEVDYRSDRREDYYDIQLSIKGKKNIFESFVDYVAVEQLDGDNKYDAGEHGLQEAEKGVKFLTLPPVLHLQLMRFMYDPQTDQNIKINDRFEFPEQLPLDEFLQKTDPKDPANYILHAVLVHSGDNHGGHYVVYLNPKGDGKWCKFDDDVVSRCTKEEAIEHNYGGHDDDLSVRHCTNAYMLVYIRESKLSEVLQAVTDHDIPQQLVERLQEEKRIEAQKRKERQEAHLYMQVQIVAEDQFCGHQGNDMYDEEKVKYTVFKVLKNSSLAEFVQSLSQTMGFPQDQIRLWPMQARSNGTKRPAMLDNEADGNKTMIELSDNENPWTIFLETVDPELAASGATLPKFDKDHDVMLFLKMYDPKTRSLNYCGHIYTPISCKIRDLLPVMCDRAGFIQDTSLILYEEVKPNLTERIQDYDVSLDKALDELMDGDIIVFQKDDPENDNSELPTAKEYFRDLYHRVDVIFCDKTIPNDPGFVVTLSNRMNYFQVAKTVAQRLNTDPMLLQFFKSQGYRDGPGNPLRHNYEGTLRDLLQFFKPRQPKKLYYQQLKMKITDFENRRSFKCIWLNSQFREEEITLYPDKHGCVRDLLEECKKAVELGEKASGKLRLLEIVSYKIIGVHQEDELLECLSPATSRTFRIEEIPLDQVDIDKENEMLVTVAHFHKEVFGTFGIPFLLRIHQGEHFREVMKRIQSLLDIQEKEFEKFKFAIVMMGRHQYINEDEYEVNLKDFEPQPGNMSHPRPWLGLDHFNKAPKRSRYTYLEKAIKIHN
The assay is described as follows: USP7 activity assay (Ub-AMC). The class given is biochemical. The conditions noted are these: 400 nM Ub-AMC, 152 pM enzyme, 30 min pre-incubation, 60 min at 37° C., sigmoidal fit; read-out: USP7 (inhibition of cysteine protease activity). The source says:
The cDNA encoding USP7 was obtained by PCR amplification from placenta mRNA. USP7 cDNA was subcloned by PCR into a baculovirus expression vector (pFastBac-HT; Invitrogen). A cDNA encoding a mutated USP7 was generated by mutagenic PCR. The corresponding protein encodes a cysteine to alanine substitution at residue 223. The sequences were ascertained by sequencing of the entire open reading frame. Bacmids encoding […] were generated following DH10bac transposition. The corresponding bacmids were transfected into insect cells (Sf9). Viruses were recovered from culture supernatant and amplified twice. Insect cells (Sf9 or High Five; Invitrogen) were infected for 72 hours. Total cell lysates were harvested and lyzed in lysis buffer-(Tris HCl 50 mM pH7.6; 0.75% NP40; 500 mM NaCl; 10% glycerol; 1 mM DTT; 10 mM imidazole; Protease Inhibitor Cocktail; AEBSF 20 μg.ml^−1; Aprotinin 10 μg.ml^−1). Proteins were affinity purified on metal affinity resins (Talon Metal affinity resin; BD Biosciences). Bound materials were extensively washed in wash buffer (50 mM Sodium Phosphate pH7.0; 300 mM NaCl; 10 mM imidazole; 0.5% Triton X-100; 10% glycerol) and eluted from the resin in 250 mM imidazole-containing wash buffer. Proteins were dialyzed in dialysis buffer (Tris HCl pH 7.6 20 mM; NaCl 200 mM; DTT 1 mM; EDTA 1 mM; 10% Glycerol). Proteins purifications were analyzed on 4-12% NuPAGE (Invitrogen).
USP7 was diluted in USP buffer (50 mM Tris HCl; 0.5 mM EDTA; 5 mM DTT; 0.01% Triton X-100; Bovine Serum Albumin 0.05 mg.ml^−1 pH7.6). Compounds stocks (100 mM) were stored at −20° C. in DMSO. Compounds were tested at the following final concentrations: 100 μM; 33.3 μM; 11.1 μM; 3.7 μM; 1.23 μM; 412 nM; 137 nM; 45.7 nM; 15.2 nM; 5 nM.
Reactions were performed as duplicates in Black LJL 96 well plates (HE microplates; Molecular Devices; 20 μl final reaction volume). The substrate concentration for USP7 was 400 nM Ub-AMC (Chem. Biol., 2003, 10, p. 837-846) (Boston Biochem). The concentrations of the enzyme (USP7) in specificity assays was 152 pM. The concentrations were determined in order to perform specificity assays under initial velocities at fixed substrate concentration. Compounds were pre-incubated with enzymes for 30 minutes at 25° C. Reactions were initiated by addition of substrate to the plates containing the enzymes (+/−compounds) diluted in assay buffer. Reactions were incubated for 60 minutes at 37° C. Reactions were stopped by adding acetic acid (100 mM final). Readings were performed on a Pherastar Fluorescent Reader (BMG). λ Emission 380 nm; λ Excitation=460 nm. Data (mean values +/−standard deviation) were analyzed as % of control (no compound) and plotted as percentage versus the Log of the compound concentration using GraphPad (Prism). Data were fitted to a sigmoidal model (variable slope).
`CON=C1c2ccccc2-c2nn3c(C)nnc3nc21` (mixture of isomers) [5a, 3-Methyl-1,2,3a,4,10-pentaaza-cyclopenta[b]fluoren-9-one O-methyl-oxime]: the IC50 was found to be 4 µM.

Turning to `C=CCON=C1c2ccccc2-c2nn3c(C)nnc3nc21` (mixture of isomers) [5b, 3-Methyl-1,2,3a,4,10-pentaaza-cyclopenta[b]fluoren-9-one O-allyl-oxime], the IC50 came out at 3.14 µM.

Consider `C=CCON=C1c2ccccc2-c2nn3c(CCCC)nnc3nc21` (mixture of isomers) [5d, 3-Butyl-1,2,3a,4,10-pentaaza-cyclopenta[b]fluoren-9-one O-allyl-oxime], for which the IC50 amounted to 5.35 µM.

`COCCON=C1c2ccccc2-c2nn3nnnc3nc21` (mixture of isomers) [8b, 1,2,3,3a, 4,10-Hexaaza-cyclopenta[b]fluoren-9-one O-(2-methoxy-ethyl)-oxime]: the IC50 was 0.47 µM.

Consider `c1ccc(OCCCON=C2c3ccccc3-c3nn4nnnc4nc32)cc1` (mixture of isomers) [8c, 1,2,3,3a,4,10-Hexaaza-cyclopenta[b]fluoren-9-one O-(3-phenoxy-propyl)-oxime], for which the IC50 is 1.78 µM.

As to `CCc1nnc2nc3c(nn12)-c1ccccc1C3=NOC` (mixture of isomers) [10b, 3-Ethyl-1,2,3a,4,10-pentaaza-cyclopenta[b]fluoren-9-one O-methyl-oxime], the IC50 stood at 4.84 µM.

As for `CCON=C1c2ccccc2-c2nn3c(CC)nnc3nc21` (mixture of isomers) [10d, 3-Ethyl-1,2,3a,4,10-pentaaza-cyclopenta[b]fluoren-9-one O-ethyl-oxime], the IC50 turned out to be 3.11 µM.

Turning to `C=CCON=C1c2ccccc2-c2nn3c(CC)nnc3nc21` (mixture of isomers) [10f, 3-Ethyl-1,2,3a,4,10-pentaaza-cyclopenta[b]fluoren-9-one O-allyl-oxime], the IC50 is 3.25 µM.

In the case of `CCc1nnc2nc3c(nn12)-c1ccccc1C3=NOCc1ccccc1` (mixture of isomers) [10h, 3-Ethyl-1,2,3a,4,10-pentaaza-cyclopenta[b]fluoren-9-one O-benzyl-oxime], the IC50 was found to be 7.28 µM.

On to `C=CCON=C1c2ccccc2-c2nn3nnnc3nc21` (mixture of isomers) [compound 6, 1,2,3,3a,4,10-hexaaza-cyclopenta[b]fluoren-9-one O-allyl-oxime], for which the IC50 amounted to 0.305 µM.

Take `ON=C1c2ccccc2-c2nn3nnnc3nc21` (mixture of isomers) [compound 7, 1,2,3,3a,4,10-hexaaza-cyclopenta[b]fluoren-9-one oxime]: the IC50 came to 0.657 µM.
